Reference: patent US9499495B2, “Quinazolines and azaquinazolines as dual inhibitors of RAS/RAF/MEK/ERK and PI3K/AKT/PTEN/mTOR pathways” (Asana Biosciences, LLC, priority 2013, dated 2016)

Experiments:
pERK in A375 cells = assay: In Cell Western (ICW) assay, pERK in A375 cells; assay type: cell-based; conditions: Homo sapiens, A-375, 3 h treatment
How it was run: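 RKO or A375 cells were exposed to compounds for 3 h at 37 °C, then fixed and stained in-cell with antibodies to pERK1/2 (T202/Y204), pS6RP or pAKT T308, followed by a Eu-labelled secondary. Time-resolved fluorescence (340/615 nm) was normalized to Hoechst, and IC50 values were fitted sigmoidally against DMSO as 0% inhibition.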

mTOR kinase = target: T1, mTOR kinase (Homo sapiens, UniProt P42345); assay: mTOR kinase TR-FRET assay; assay type: biochemical
T1 construct: purchased Millipore, US
How it was run: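 TR-FRET with ULight-p70 S6K (Thr 389) peptide (50 nM) and 20 μM ATP in 50 mM HEPES pH 7.5, 1 mM EGTA, 3 mM MnCl2; compound pre-incubated with enzyme before substrate addition, reaction at rt, EDTA-stopped. Eu anti-phospho antibody read 665/615 nm; IC50 from sigmoidal dose-response fit.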

A375 cells = assay: XTT assay for cell viability, A375 cells; assay type: cell-based; conditions: Homo sapiens, A-375, 72 h
How it was run: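 RKO and A375 cells seeded at 1000-2000/well overnight, then exposed to compound for 72 h at 37° C., 5% CO2. XTT (1 mg/ml)/PMS (25 μM) added for 2-3 h; absorbance at 450 nm. Growth relative to DMSO control (100%); GI50 from sigmoidal dose-response fit.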

B-RAFV600E = target: T2, B-RAFV600E (Homo sapiens, UniProt P15056, V600E); assay: B-RAFV600E radiometric assay; assay type: biochemical; conditions: read-out: Kinase assay B-Raf
T2 construct: purchased Millipore, USA 14-557
How it was run: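 B-RAFV600E was preincubated 45 min at rt with compound in 1% DMSO. MEK-K97M (0.5 μg), 5 μM final cold ATP and [γ-32P]ATP were then added for 2 h at rt. Phosphorylated MEK was captured on P81 paper and scintillation-counted; IC50 came from a sigmoidal dose-response fit.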

pS6RP in RKO cells = assay: In Cell Western (ICW) assay, pS6RP in RKO cells; assay type: cell-based; conditions: Homo sapiens, 3 h treatment
Procedure: (§1) Cell lines A375, A2058 and RKO obtained from the ATCC as provided above, were grown, and after attaining ˜80% confluency were trypsinized, centrifuged and resuspended in fresh media. The cells were seeded at the specified density (20,000 to 50,000) in a 96-well format black-well clear bottom plate (Corning) and incubated overnight at 37° C. in a 5% CO2 incubator. The next day, compound dilutions of test compounds were prepared in 100% DMSO followed by dilutions in respective media. Treatment of test compounds was performed for 3 h at 37° C. in 5% CO2 incubator. Following 3 h drug treatment, the conditional media was discarded and the cells were washed once with cPBS (PBS containing 0.1% magnesium chloride hexahydrate and 0.1% anhydrous calcium chloride) and fixed with 4% paraformaldehyde in cPBS for 1 h at rt. After fixing, the cells were given three washes using cPBST (cPBS containing 0.1% Triton™ X-100 reagent) and then blocked using blocking solution (5% skimmed milk powder or 5% BSA prepared in cPBST) for 2 h at rt with shaking at 300 rpm. The cells were again washed thrice with cPBST and incubated with primary antibody phospho-p44/42 MAPK(Erk1/2)(Thr202/204) antibody (Cell Signaling, Catalog # 9101L), phospho S6 ribosomal protein (Cell Signaling, Catalog #4858L), phospho AKT (Thr 308) (Cell Signaling, Catalog #9275) or phospho AKT (Ser 473) (Cell Signaling, Catalog #4060L) in specified dilutions (1:500-1:2500), prepared in respective blocking solutions, in a racker overnight at 4° C. The next day, the cells were washed with 1× Delfia® wash buffer (4×1 wash) and incubated with secondary antibody (Delfia®-Eu-N1 labeled anti-rabbit antibody; PerkinElmer, Catalog #AD0105; dilutions: 1:2000 to 1:6000 in Delfia® assay buffer (PerkinElmer, Catalog #1244-111)) for 2 h at rt in the dark at 300 rpm. The cells were then given four washes with 1× Delfia® wash buffer and incubated with Wallac Delfia® Enhancement solution (100 μL; PerkinElmer, Catalog #1244-105) for 20 min at rt in the dark at 300 rpm. The fluorescence emission was then read at 615 nm with an excitation wavelength of 340 nm using a Victor V5 Fluorometer (Perkin Elmer, US). The cells were then washed once with 1×cPBS and incubated with 100 μL of 0.5 mg/mL of Hoechst 33258 dye prepared in cPBS and read at 460 nm with 355 nm excitation, thereby evaluating the correction factor.
(§2) The % inhibition for the test compounds of formula (I) (new chemical entities (NCEs)) was calculated keeping DMSO control as 0% and the IC50 values were determined using sigmoidal dose response curve fit in GraphPad Prism® v5 software.

RKO cells = assay: XTT assay for cell viability, RKO cells; assay type: cell-based; conditions: Homo sapiens, 72 h
Procedure: Cell lines (A375 ATCC No. CRL-1619, A2058 ATCC No. CRL-11147 and RKO ATCC No. CRL-2577, American Type Culture Collection (ATCC), Manassas Va.) once attaining ˜80% confluency were trypsinized, centrifuged and resuspended in fresh media. Cells (1000-2000/per well) were seeded in 96-well plate and incubated over-night at 37° C. in a 5% CO2 incubator. Compound dilutions were prepared in 100% DMSO followed by dilutions in the respective media. The cells were treated with NCEs for 72 h at 37° C. in 5% CO2 incubator. After 72 h, freshly prepared XTT (1 mg/ml)/PMS (25 μM) solution was added, incubated for 2 to 3 h at 37° C. and the absorbance was measured at 450 nm using an ELISA plate reader. Keeping DMSO control as 100%, the effect of the compound to inhibit the cell proliferation was calculated and the GI50 values were determined using sigmoidal dose response curve fit in GraphPad Prism® v5 software.

pERK in RKO cells = assay: In Cell Western (ICW) assay, pERK in RKO cells; assay type: cell-based; conditions: Homo sapiens, 3 h treatment
Procedure: as §1, §2

PI3Kα = target: T3, PI3Kα (Homo sapiens, UniProt P42336); assay: PI3 Kinase alpha TR-FRET assay; assay type: biochemical
T3 construct: made in house; host or cells: SF9 cells
How it was run: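 Purified Sf9-expressed p110/p85α (5 ng) was pre-incubated with compound and PIP2 at rt, then ATP was added (PIP2 and ATP both 40 μM) for a 30 min reaction. PIP3 was detected by TR-FRET displacement of biotin-PIP3, and IC50 was taken from dose-response curves of the 665/615 nm emission ratio.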

pAKT (T308) in RKO cells = assay: In Cell Western (ICW) assay, pAKT-T308 in RKO cells; assay type: cell-based; conditions: Homo sapiens, 3 h treatment
Procedure: as §1, §2

T2 sequence (P15056 416-766 V600E limits assumed): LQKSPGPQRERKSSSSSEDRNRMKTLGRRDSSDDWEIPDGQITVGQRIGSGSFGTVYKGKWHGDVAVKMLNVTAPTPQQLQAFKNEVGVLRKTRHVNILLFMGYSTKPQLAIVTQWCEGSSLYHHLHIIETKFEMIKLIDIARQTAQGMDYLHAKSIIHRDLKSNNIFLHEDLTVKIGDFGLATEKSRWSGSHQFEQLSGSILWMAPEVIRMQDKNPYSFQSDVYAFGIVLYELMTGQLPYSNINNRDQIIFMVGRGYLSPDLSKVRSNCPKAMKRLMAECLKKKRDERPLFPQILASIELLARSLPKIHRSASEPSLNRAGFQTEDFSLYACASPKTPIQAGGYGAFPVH
T1 sequence (P42345 1362-2549 limits assumed): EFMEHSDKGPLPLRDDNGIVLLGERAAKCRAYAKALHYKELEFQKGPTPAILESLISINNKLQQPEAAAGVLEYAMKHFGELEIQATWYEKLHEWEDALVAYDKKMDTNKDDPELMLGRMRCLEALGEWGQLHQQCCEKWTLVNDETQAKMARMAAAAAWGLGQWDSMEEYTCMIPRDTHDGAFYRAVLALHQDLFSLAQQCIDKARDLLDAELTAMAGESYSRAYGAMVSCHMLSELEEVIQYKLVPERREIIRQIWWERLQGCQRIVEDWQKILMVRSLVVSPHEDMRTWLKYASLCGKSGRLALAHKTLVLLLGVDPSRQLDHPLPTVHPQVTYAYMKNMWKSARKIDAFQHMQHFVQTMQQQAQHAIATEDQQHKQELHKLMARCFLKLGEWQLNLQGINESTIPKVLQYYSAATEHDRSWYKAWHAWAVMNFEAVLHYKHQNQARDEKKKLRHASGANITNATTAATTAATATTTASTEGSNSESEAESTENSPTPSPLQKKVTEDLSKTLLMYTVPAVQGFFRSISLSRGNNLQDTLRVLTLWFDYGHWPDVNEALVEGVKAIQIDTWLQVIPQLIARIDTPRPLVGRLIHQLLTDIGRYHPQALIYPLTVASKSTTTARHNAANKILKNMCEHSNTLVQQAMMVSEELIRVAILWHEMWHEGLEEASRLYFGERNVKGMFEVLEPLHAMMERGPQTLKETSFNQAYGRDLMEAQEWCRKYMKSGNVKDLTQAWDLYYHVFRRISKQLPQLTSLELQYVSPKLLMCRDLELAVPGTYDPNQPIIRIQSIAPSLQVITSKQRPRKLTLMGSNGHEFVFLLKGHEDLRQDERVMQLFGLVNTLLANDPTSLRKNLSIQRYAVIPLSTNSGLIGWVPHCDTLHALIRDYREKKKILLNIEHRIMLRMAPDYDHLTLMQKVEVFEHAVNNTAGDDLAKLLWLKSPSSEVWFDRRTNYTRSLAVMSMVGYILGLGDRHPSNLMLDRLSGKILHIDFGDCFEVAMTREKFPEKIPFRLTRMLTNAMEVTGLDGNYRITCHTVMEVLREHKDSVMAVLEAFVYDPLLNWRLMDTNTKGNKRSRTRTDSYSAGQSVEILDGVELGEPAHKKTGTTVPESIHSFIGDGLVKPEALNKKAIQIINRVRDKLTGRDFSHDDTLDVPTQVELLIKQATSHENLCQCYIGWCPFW
T3 sequence (P42336 whole entry, species assumed): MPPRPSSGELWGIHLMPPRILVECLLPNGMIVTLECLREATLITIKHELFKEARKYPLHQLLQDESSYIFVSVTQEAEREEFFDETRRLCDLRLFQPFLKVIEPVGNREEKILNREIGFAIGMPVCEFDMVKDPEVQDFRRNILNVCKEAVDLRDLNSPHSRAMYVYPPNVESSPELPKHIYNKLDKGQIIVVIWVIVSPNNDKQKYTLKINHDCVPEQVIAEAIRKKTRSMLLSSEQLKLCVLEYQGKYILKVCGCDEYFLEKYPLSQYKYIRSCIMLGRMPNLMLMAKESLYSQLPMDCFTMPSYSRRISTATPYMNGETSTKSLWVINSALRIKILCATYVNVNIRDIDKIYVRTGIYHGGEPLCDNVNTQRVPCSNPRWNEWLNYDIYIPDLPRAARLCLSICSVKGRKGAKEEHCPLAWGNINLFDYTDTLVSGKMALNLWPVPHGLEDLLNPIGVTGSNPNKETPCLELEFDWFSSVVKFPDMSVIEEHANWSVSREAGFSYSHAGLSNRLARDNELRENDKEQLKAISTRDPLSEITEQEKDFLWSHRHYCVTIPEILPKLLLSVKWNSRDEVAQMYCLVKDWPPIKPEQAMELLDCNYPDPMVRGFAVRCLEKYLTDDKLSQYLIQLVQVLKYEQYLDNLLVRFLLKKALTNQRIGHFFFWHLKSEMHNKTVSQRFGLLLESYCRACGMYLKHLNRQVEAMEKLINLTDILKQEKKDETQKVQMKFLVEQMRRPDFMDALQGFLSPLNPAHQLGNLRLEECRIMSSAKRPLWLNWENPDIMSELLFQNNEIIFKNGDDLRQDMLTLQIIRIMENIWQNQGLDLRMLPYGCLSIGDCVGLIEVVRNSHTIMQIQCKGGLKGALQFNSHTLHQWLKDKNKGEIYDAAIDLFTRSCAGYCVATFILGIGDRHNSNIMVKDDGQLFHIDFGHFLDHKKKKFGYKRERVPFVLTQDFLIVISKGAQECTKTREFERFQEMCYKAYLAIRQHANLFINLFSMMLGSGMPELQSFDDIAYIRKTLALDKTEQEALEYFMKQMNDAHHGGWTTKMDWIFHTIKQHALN
T3 sequence (P27986 whole entry partner, species assumed): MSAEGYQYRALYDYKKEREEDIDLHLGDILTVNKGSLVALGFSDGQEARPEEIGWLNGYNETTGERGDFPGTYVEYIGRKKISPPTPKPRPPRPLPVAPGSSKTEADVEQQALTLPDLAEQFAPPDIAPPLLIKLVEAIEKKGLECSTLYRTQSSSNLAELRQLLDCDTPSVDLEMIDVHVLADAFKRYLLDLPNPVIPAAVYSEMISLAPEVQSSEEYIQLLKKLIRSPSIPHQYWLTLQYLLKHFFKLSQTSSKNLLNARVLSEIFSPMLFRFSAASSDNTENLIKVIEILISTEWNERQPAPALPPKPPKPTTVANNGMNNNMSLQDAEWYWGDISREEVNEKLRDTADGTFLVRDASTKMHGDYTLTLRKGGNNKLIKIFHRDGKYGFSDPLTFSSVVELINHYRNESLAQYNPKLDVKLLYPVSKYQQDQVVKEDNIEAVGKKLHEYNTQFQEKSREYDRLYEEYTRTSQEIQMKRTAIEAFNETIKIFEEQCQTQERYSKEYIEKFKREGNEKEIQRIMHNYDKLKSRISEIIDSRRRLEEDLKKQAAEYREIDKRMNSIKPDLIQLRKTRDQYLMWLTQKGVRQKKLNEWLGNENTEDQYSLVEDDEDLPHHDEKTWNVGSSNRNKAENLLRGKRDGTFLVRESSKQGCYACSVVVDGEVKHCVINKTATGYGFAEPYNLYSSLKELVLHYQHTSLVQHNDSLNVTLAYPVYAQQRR

SMILES	IC50 (pERK in A375 cells) [nM]	IC50 (mTOR kinase) [nM]	IC50 (A375 cells) [nM]	IC50 (B-RAFV600E) [nM]	IC50 (pS6RP in RKO cells) [nM]	IC50 (RKO cells) [nM]	IC50 (pERK in RKO cells) [nM]	IC50 (PI3Kα) [nM]	IC50 (pAKT (T308) in RKO cells) [nM]
Nc1ccc(-c2nc(N3CCOCC3)c3cc(-c4cccc(NS(=O)(=O)CCCF)c4F)cc(N4CCOCC4)c3n2)cn1 [Example 5, N-(3-(2-(6-aminopyridin-3-yl)-4,8-dimorpholinoquinazolin-6-yl)-2-fluorophenyl)-3-fluoropropane-1-sulfonamide]	1 to 100	1 to 100	1 to 100	1 to 100	1 to 100	100 to 1000	1 to 100	–	–
COc1cc(-c2cccc(NS(=O)(=O)CCCF)c2F)cc2c(N3CCOCC3)nc(-c3ccc(N)nc3)nc12 [Example 30, N-(3-(2-(6-aminopyridin-3-yl)-8-methoxy-4-morpholinoquinazolin-6-yl)-2-fluorophenyl)-3-fluoropropane-1-sulfonamide]	1 to 100	100 to 1000	100 to 1000	1 to 100	100 to 1000	100 to 1000	1 to 100	–	–
COc1cc(-c2cccc(NS(=O)(=O)CCCF)c2F)cc2c(N3CCOC[C@H]3C)nc(-c3ccc(N)nc3)nc12 [Example 42, (R)-N-(3-(2-(6-aminopyridin-3-yl)-8-methoxy-4-(3-methylmorpholino)quinazolin-6-yl)-2-fluorophenyl)-3-fluoropropane-1-sulfonamide]	1 to 100	1 to 100	1 to 100	1 to 100	100 to 1000	100 to 1000	1 to 100	–	–
CCOc1cc(-c2cccc(NS(=O)(=O)CCCF)c2F)cc2c(N3CCOCC3)nc(-c3ccc(N)nc3)nc12 [Example 52, N-(3-(2-(6-aminopyridin-3-yl)-8-ethoxy-4-morpholinoquinazolin-6-yl)-2-fluorophenyl)-3-fluoropropane-1-sulfonamide]	1 to 100	100 to 1000	1 to 100	1 to 100	100 to 1000	100 to 1000	1 to 100	–	–
CC(C)Oc1cc(-c2cccc(NS(=O)(=O)CCCF)c2F)cc2c(N3CCOCC3)nc(-c3ccc(N)nc3)nc12 [Example 55, N-(3-(2-(6-aminopyridin-3-yl)-8-isopropoxy-4-morpholinoquinazolin-6-yl)-2-fluorophenyl)-3-fluoropropane-1-sulfonamide]	1 to 100	100 to 1000	1 to 100	1 to 100	100 to 1000	100 to 1000	1 to 100	–	–
CC(C)Oc1cc(-c2cccc(NS(=O)(=O)CCCF)c2F)cc2c(N3CCOC[C@H]3C)nc(-c3ccc(N)nc3)nc12 [Example 63, (R)-N-(3-(2-(6-aminopyridin-3-yl)-8-isopropoxy-4-(3-methylmorpholino)quinazolin-6-yl)-2-fluorophenyl)-3-fluoropropane-1-sulfonamide]	1 to 100	1 to 100	1 to 100	1 to 100	100 to 1000	100 to 1000	1 to 100	–	–
C[C@@H]1COCCN1c1nc(-c2cnc(N)nc2)nc2c(N3CCOCC3)cc(-c3cccc(NS(=O)(=O)CCCF)c3F)cc12 [Example 73, (R)-N-(3-(2-(2-aminopyrimidin-5-yl)-4-(3-methylmorpholino)-8-morpholinoqulnazolin-6-yl)-2-fluorophenyl)-3-fluoropropane-1-sulfonamide]	1 to 100	1 to 100	1 to 100	1 to 100	100 to 1000	100 to 1000	1 to 100	–	–
Nc1ncc(-c2nc(N3CCOCC3)c3nc(-c4cccc(NS(=O)(=O)CCCF)c4F)ccc3n2)c(C(F)(F)F)n1 [Example 100, N-(3-(2-(2-amino-4-(trifluoromethyl)pyrimidin-5-yl)-4-morpholinopyrido[3,2-d]pyrimidin-6-yl)-2-fluorophenyl)-3-fluoropropane-1-sulfonamide]	100 to 1000	–	100 to 1000	1 to 100	–	100 to 1000	1 to 100	1 to 100	100 to 1000
Nc1ncc(-c2nc(N3CCOCC3)c3nc(-c4cccc(NS(=O)(=O)CCCF)c4F)ccc3n2)cc1Cl [Example 103, N-(3-(2-(6-amino-5-chloropyridin-3-yl)-4-morpholinopyrido[3,2-d]pyrimidin-6-yl)-2-fluorophenyl)-3-fluoropropane-1-sulfonamide]	100 to 1000	–	–	1 to 100	–	1000 to 10000	–	100 to 1000	1000 to 10000
Nc1ncc(-c2nc(N3CCOCC3)c3nc(-c4cccc(NS(=O)(=O)CCCF)c4F)ccc3n2)cc1F [Example 105, N-(3-(2-(6-amino-5-fluoropyridin-3-yl)-4-morpholinopyrido[3,2-d]pyrimidin-6-yl)-2-fluorophenyl)-3-fluoropropane-1-sulfonamide]	100 to 1000	–	100 to 1000	1 to 100	–	1000 to 10000	100 to 1000	1 to 100	1000 to 10000
Cc1nc(N)ncc1-c1nc(N2CCOCC2)c2nc(-c3cccc(NS(=O)(=O)CCCF)c3F)ccc2n1 [Example 109]	1 to 100	–	100 to 1000	1 to 100	–	–	100 to 1000	1 to 100	1000 to 10000
CNC(=O)Nc1ccc(-c2nc(N3CCOCC3)c3nc(-c4cccc(NS(=O)(=O)CCCF)c4F)ccc3n2)cc1 [Example 139, 3-fluoro-N-(2-fluoro-3-(2-(4-(3-methylureido)phenyl)-4-morpholinopyrido[3,2-d]pyrimidin-6-yl)phenyl)propane-1-sulfonamide]	100 to 1000	1 to 100	100 to 1000	1 to 100	–	100 to 1000	100 to 1000	–	100 to 1000
